Measured values: patent US12485147B2, “Method for producing cell mass including pituitary tissue, and cell mass thereof” (SUMITOMO CHEMICAL COMPANY, LIMITED, priority 2017, dated 2025)

Tests used:
Assay type in all cases: cell-based
[1] = test system: Human iPS cells (HC-6 #10 strain); test: Cell mass from human iPS cells using Wnt signal transduction pathway activating substance (CHIR99021) and inhibiting substance in combination; bright field observation and immunostaining
Method: Human iPS cells (HC-6 #10 strain, obtained from RIKEN) were cultured under feeder-free conditions according to the method described in Scientific Reports, 4, 3594 (2014). As the feeder-free medium, StemFit medium was used and, as the feeder-free scaffold, Laminin 511-E8 was used. Specific maintenance culturing operation was performed in the same manner as in Example 1. The thus-prepared subconfluent human iPS cells were washed with PBS, subjected to an enzyme treatment using Accumax, a serum-free medium for differentiation induction was added, and the cells were scraped from the surface of the culture dish by using a cell scraper and dispersed into single cells by pipetting. Thereafter, the aforementioned human ES cells dispersed into single cells were suspended in 100 μl of a serum-free medium at 9×10^3 cells per well of a non-cell-adhesive 96-well culture plate (PrimeSurface […]-bottom plate, manufactured by SUMITOMO BAKELITE), and cultured in suspension under the conditions of 37° C., 5% CO2. As the serum-free medium ([…]) therefor, a serum-free medium which is a 1:1 mixture of F-12+Glutamax medium (manufactured by Thermo Fisher Scientific) and IMDM+Glutamax medium (manufactured by Thermo Fisher Scientific) supplemented with 5% Knockout Serum Replacement (manufactured by Thermo Fisher Scientific), 450 μM 1-monothioglycerol (manufactured by Wako Pure Chemical Industries, Ltd.), 1× Chemically defined lipid concentrate (manufactured by Thermo Fisher Scientific), 50 unit/ml penicillin-50 μg/ml streptomycin (manufactured by Nacalai Tesque) was used. At the time of the start of suspension culturing (day 0 from the start of suspension culturing, start of step 1), Y27632 (final concentration 20 μM), SB-431542 (TGFβ signal transduction pathway inhibiting substance, manufactured by Wako Pure Chemical Industries, Ltd., 1 μM), and IWP-2 (Wnt signal transduction pathway inhibiting substance, manufactured by Tocris Bioscience, 2 μM) were added to the aforementioned serum-free medium. In addition, conditions in which CHIR99021 (manufactured by Cayman Chemical) is added at 300 nM, 1 μM, 3 μM as a Wnt signal transduction pathway activating substance, and conditions in which DMSO alone is added as a control of no addition were set, totaling in 4 conditions. In the present Example, CHIR99021 is sometimes referred to as CHIR. A serum-free medium not containing Y27632 and containing SB-431542, IWP-2, BMP4 (BMP signal transduction pathway activating substance) and CHIR99021 under each condition set was added at 100 μl per well on day 2 from the start of suspension culturing. BMP4 was added at 3 nM to the medium so that the final concentration in the well would be 1.5 nM. As a method for inducing cell mass containing nonneural epithelium and placode, a half amount of the medium was changed with a serum-free medium not containing Y27632 or BMP4, and containing IWP-2, SB-431542, K02288 (BMP signal transduction pathway inhibiting substance, manufactured by AdooQ Bioscience), FGF2-TS (FGF signal transduction pathway activating substance, manufactured by HumanZyme) and Heparin Sodium (manufactured by FUJIFILM Wako Pure Chemical Corporation) on day 3 from the start of suspension culturing. K02288, FGF2, and Heparin Sodium were respectively added at 2 μM, 40 ng/ml, and 20 μg/ml to the medium so that the final concentration in the well would be respectively 1 μM, 20 ng/ml, and 10 μg/ml. A half amount of the medium was changed on day 6 and day 10 from the start of suspension culturing. On day 13 from the start of suspension culturing, bright field observation was performed under an inverted microscope (FIGS. 11A-D). […] The above-mentioned cell masses on day 13 of the culturing were fixed by a method similar to that in Example 1 to prepare cryosections. […]

[2] = test system: Human ES cells (KhES-1 strain); test: Effect of compound treatment before differentiation induction in production of cell mass containing pituitary tissue; bright field observation; conditions: day 28
Method: Human ES cells (KhES-1 strain) were cultured under feeder-free conditions according to the method described in Scientific Reports, 4, 3594 (2014). As the feeder-free medium, StemFit medium was used and, as the feeder-free scaffold, Laminin 511-E8 was used. Specific maintenance culturing operation was performed in the same manner as in Example 1. As a pre-treatment for differentiation induction of the cultured cells, cells under 4 conditions were maintenance cultured under conditions in which, condition in which nothing is simultaneously added with medium change with […] medium (Control), conditions in which 300 nM SAG alone is added (+300 nM SAG), conditions in which 5 μM SB-431542 alone is added (+5 μM SB-431542), and conditions in which SAG and SB431542 are simultaneously added (+SAG/SB) at 6 days after seeding. The next day of the above-mentioned treatment, human ES cells under 4 conditions that reached subconfluence were each subjected to differentiation induction by suspension culturing into a cell mass containing pituitary tissue according to the method described in Example 1. Bright field observation was performed under an inverted microscope on day 28 from the start of suspension culturing (FIGS. 6A-D).

[3] = test system: Human ES cells (KhES-1 strain); test: Addition conditions of Wnt signal transduction pathway inhibiting substance in production of cell mass containing pituitary tissue; bright field observation; conditions: day 28
Method: (§1) Human ES cells (KhES-1 strain) were cultured under feeder-free conditions according to the method described in Scientific Reports, 4, 3594 (2014). As the feeder-free medium, StemFit medium was used and, as the feeder-free scaffold, Laminin 511-E8 was used.
(§2) Specific maintenance culturing operation was performed in the same manner as in Example 1.
Thereafter, suspension culturing in a 96 well plate was performed under conditions similar to those in Example 1 except that the kind or the presence or absence of the Wnt signal transduction pathway inhibiting substance to be added at the start of suspension culturing was changed. As the Wnt signal transduction pathway inhibiting substances, IWP-2, C-59 (manufactured by Cayman Chemicals, 500 nM), LGK974 (manufactured by Cayman Chemicals, 5 μM) which are PORCN inhibitors; XAV939 (manufactured by Cayman Chemicals, 1 μM), IWR1-endo (manufactured by Merck Millipore, 1 μM) which are TANK inhibitors, and KY02111 (manufactured by Cayman Chemicals, 5 μM) whose action mechanism has not been reported were added at the start of the suspension culturing, and the condition with the addition of DMSO alone as a control of no addition of a Wnt signal transduction pathway inhibiting substance was performed.
A serum-free medium not containing Y27632 and containing each Wnt signal transduction pathway inhibiting substance, SB-431542, BMP4, and SAG was added at 100 μl per well on day 2 from the start of suspension culturing. BMP4 was added at 3 nM to the medium so that the final concentration in the well would be 1.5 nM, and SAG was added at 4 μM to the medium so that the final concentration in the well would be 2 μM.
A half amount of the medium was changed with a serum-free medium not containing Y27632 or BMP4 and containing each Wnt signal transduction pathway inhibiting substance, SB-431542 and SAG on days 6, 10, 13, 17, 21, 24 from the start of suspension culturing. In addition to the above-mentioned conditions, the condition in which neither SB431542 nor a Wnt signal transduction pathway inhibiting substance is added during suspension culturing was also performed.
Bright field observation was performed using an inverted microscope (manufactured by KEYENCE CORPORATION, BIOREVO) on day 28 from the start of suspension culturing (FIGS. 7A-H).

[4] = test system: Human ES cells (KhES-1 strain); test: TGFβ signal transduction pathway inhibitory conditions in production of cell mass containing pituitary tissue; conditions: IWP-2 added, no TGFβ signal transduction pathway inhibiting substance; day 28
Method: as §1, §2
Thereafter, suspension culturing in a 96 well plate was performed under conditions similar to those in Example 1 except that the concentration and kind of the TGFβ signal transduction pathway inhibiting substance to be added at the start of the suspension culturing are changed. As the TGFβ signal transduction pathway inhibiting substance therefor, SB431542 (1 or 10 μM), A 83-01 (manufactured by Cayman Chemicals, 1 or 10 μM), and RepSox (manufactured by Cayman Chemicals, 1 μM) were added at respective concentration conditions.
Thereafter, a serum-free medium not containing Y27632 and containing IWP-2, each TGFβ signal transduction pathway inhibiting substance, BMP4, and SAG was added at 100 μl per well on day 2 from the start of suspension culturing. BMP4 was added at 3 nM to the medium so that the final concentration in the well would be 1.5 nM, and SAG was added at 4 μM to the medium so that the final concentration in the well would be 2 μM.
A half amount of the medium was changed with a serum-free medium not containing Y27632 or BMP4 and containing IWP-2, each TGFβ signal transduction pathway inhibiting substance, and SAG on days 6, 10, 13, 17, 21, 24 from the start of suspension culturing. In addition to the above-mentioned conditions, the condition in which neither a TGFβ signal transduction pathway inhibiting substance nor IWP-2 is added during suspension culturing, and the condition in which IWP-2 is added and a TGFβ signal transduction pathway inhibiting substance is not added during suspension culturing were also performed.

[5] = test system: Human ES cells (KhES-1 strain); test: Addition conditions of Sonic hedgehog signal transduction pathway activating substance (SAG) in production of cell mass containing pituitary tissue; bright field observation; conditions: day 28
Method: Human ES cells (KhES-1 strain, obtained from Kyoto University) were cultured under feeder-free conditions according to the method described in Scientific Reports, 4, 3594 (2014). As the feeder-free medium, StemFit medium was used and, as the feeder-free scaffold, Laminin 511-E8 was used.
as §2
Thereafter, suspension culturing in a 96 well plate was started under conditions similar to those in Example 1.
A serum-free medium not containing Y27632 and containing IWP-2, SB-431542, BMP4, and SAG was added at 100 μl per well on day 2 from the start of suspension culturing. BMP4 was added at 3 nM to the medium so that the final concentration in the well would be 1.5 nM. SAG was added at a final concentration of 100, 300, 500, 700 nM, 1, 2, 5 μM as a Sonic hedgehog signal transduction pathway activating substance. The condition without addition of a Sonic hedgehog signal transduction pathway activating substance during the suspension culturing period was taken as the control (-SAG condition, FIG. 5A).
A half amount of the medium was changed with a serum-free medium not containing Y27632 or BMP4, and containing IWP-2, SB-431542, each concentration of SAG on days 6, 10, 13, 17, 21, 24 from the start of suspension culturing. […]

[6] = 300 nM CHIR vs no addition, day 13

Cc1c[nH]c(-c2cnc(NCCNc3ccc(C#N)cn3)nc2-c2ccc(Cl)cc2Cl)n1 [CHIR99021]
neural tissue in the inside [1, 6]: survival of neural tissue in the inside and epithelial formation were promoted | size of cell mass [1, 6]: larger cell masses were formed | marker-positive tissue formation (immunostaining) ([1]; 300 nM, 1 μM CHIR (also no addition), day 13): formation of Dlx5, Six1, E-Cadherin, N-Cadherin positive nonneural epithelium or placode precursor tissue | nonneural epithelium thickening and placode formation ([1]; 1 μM CHIR, day 13): thickening of nonneural epithelium on the outside and formation of placode were suppressed | formation of nonneural epithelial tissue on surface (bright field) ([1]; 3 μM CHIR99021, day 13): formation of nonneural epithelial tissue on the surface of cell mass is inhibited | formation of nonneural epithelium (immunostaining) ([1]; 3 μM CHIR, day 13): Formation of nonneural epithelium was not observed | growth of cell masses (bright field) ([1]; CHIR99021 300 nM, 1 μM, 3 μM in presence of IWP-2, day 13): cell masses grow in a concentration-dependent manner | level effective for growth of whole cell masses, survival of neural tissue in the inside and promotion of epithelial formation ([1]; in the presence of IWP-2): not more than 3 μM

NC(=O)c1ccc(-c2nc(-c3ccc4c(c3)OCO4)c(-c3ccccn3)[nH]2)cc1 [SB431542, 4-(5-benzol[1,3]dioxol-5-yl-4-pyridin-2-yl-1H-imidazol-2-yl)-benzamide]
cell mass formation ([2]; pre-treatment with 5 μM SB-431542 alone): larger cell masses containing pituitary tissues were formed | nonneural epithelial tissue on surface of cell mass ([3]; SB431542 added, no Wnt signal transduction pathway inhibiting substance): nonneural epithelial tissue was not formed on the surface of the cell masses

Cc1ccc2nc(NC(=O)CSc3nc4c(c(=O)n3-c3ccccc3)SCC4)sc2c1 [IWP-2]
size and condition of cell mass ([3]; 2 μM IWP-2, 5 μM KY02111, 1 μM XAV939, 1 μM IWR1e): large cell masses in good condition were formed | nonneural epithelial structure on surface of cell mass ([3]; IWP-2 2 μM, KY02111 5 μM, C-59 500 nM, LGK974 5 μM, XAV939 1 μM, IWR1-endo 1 μM added at start, with SB-431542, BMP4, SAG): cell masses having a nonneural epithelial structure on the surface were formed | mesenchymal cell between outer nonneural epithelial tissue and inner neuroepithelial tissue [4]: a mesenchymal cell could not be confirmed | nonneural epithelial structure on surface of cell mass [4]: a nonneural epithelial structure was formed on the surface of the cell mass | size of cell mass [4]: the formed cell mass was small

CNC1CCC(N(Cc2cccc(-c3ccncc3)c2)C(=O)c2sc3ccccc3c2Cl)CC1 (stereo not shown) [SAG]
size of cell mass and formation of pituitary tissue on the surface ([5]; SAG 100 nM, 300 nM, 500 nM, 700 nM, 1 μM or 2 μM compared with 5 μM): the size of the cell mass was larger and formation of pituitary tissue on the surface of cell mass was fine | structure of cell mass (bright field) ([5]; SAG 100, 300, 500, 700 nM, 1, 2, 5 μM added on day 2, compared with no SAG): cell masses with the nonneural epithelial tissue invaginated like Rathke's pouch on the surface and containing neuroepithelium-like tissue and mesenchymal cells in the inside | size of cell mass ([2]; pre-treatment with 300 nM SAG alone vs no addition): cell mass became large | presence of mesenchymal cell ([2]; pre-treatment with 300 nM SAG alone): the presence of a mesenchymal cell could also be confirmed
